Laboratory results taken from patent publication US5466687A, “Arylidene-1-azacycloalkanes and arylalkyl-1-azacyclo-alkanes, their salts, medicaments containing these compounds and their use, and processes for their preparation” (priority 1992, dated 1995).
≈ marks a conversion by molar mass, not a printed value. Where two headings read alike, the source gives them in different places.

Columns and labels:
[1] = tested on: human hepatoma cells (HEP-G2); assay: Inhibition of 14C-acetate incorporation in digitonin-precipitatable steroids in HEP-G2 cells; format: cell-based; conditions: Homo sapiens; for percent change in 14C-acetate incorporation into sterols at 0.1 µM: HepG2, 10^-7 mol/l; for percent change in 14C-acetate incorporation into sterols at 0.01 µM: HepG2, 10^-8 mol/l
Protocol: I. Measurement of the inhibition of ^14 C-acetate incorporation in digitonin-precipitatable steroids:
After 3 days of culture, human hepatoma cells (HEP-G2) are stimulated for 16 hours in cholesterol-free medium. The substances to be tested (dissolved in dimethyl sulphoxide, final concentration 0.1%) are added during this stimulation phase. After the addition of 200 μmol/l of 2-^14 C-acetate, the mixture is then reincubated at 37° C. for a further 2 hours.
The cells are detached and the sterol esters are hydrolyzed and, after extraction, sterols are precipitated using digitonin. The ^14 C-acetate incorporated into digitonin-precipitatable sterols is determined by scintillation measurement.
The investigation of the inhibitory action was carried out at test concentrations of 10^-7 mol/l and 10^-8 mol/l. The test results of the following compounds A to AG of the general formula I are indicated at these test concentrations by way of example: […]

[2] = tested on: 2,3-epoxysqualene-lanosterol cyclase; assay: In vivo effect in the rat after oral administration: 2,3-epoxysqualene level in plasma; set-up: species or system rat (male Wistar); conditions: 5 hours after administration
Protocol: II. Measurement of the in vivo effect in the rat after oral administration
The inhibition of the enzyme 2,3-epoxysqualene-lanosterol cyclase causes an increase in the 2,3-epoxy-squalene level in the liver and plasma. Therefore, the amount of 2,3-epoxysqualene formed therefore serves as a direct measure of the effectiveness in the whole animal. The determination is carried out by the following method:
The test substance suspended in 1.5% strength aqueous methylcellulose is administered via stomach tube to male Wistar rats (160-190 g body weight). 5 hours after administration, blood is obtained retroorbitally from the venous plexus. Plasma is extracted by the method of Bligh and Dyer (Canad. J. Biochem. Physiol. 37, 912, [1959]), purified by means of a precolumn and then analyzed by means of HPLC. The peaks obtained are identified and quantified by means of calibration substances. An internal standard is used to check the reproducibility of the results.
The investigations were carried out using concentrations of 0.1 and 1.0 mg/kg. The results for the above mentioned substances A to M are compiled in the following Table by way of example: […]

[3] = tested on: normolipaemic golden hamster; assay: Lipid reduction in the normolipaemic golden hamster; format: in vivo; conditions: 12 days, vs control group
Protocol: III. Lipid reduction in the normolipaemic golden hamster
Male golden hamsters are fed ad lib with a cholesterol-free hamster diet for 12 days. The substance to be tested is admixed to the feed in concentrations of 0.01 to 0.10%. At the end of the experimental period, the total cholesterol, the HDL fraction and also the VLDL+LDL fraction are determined by standard methods, a control group fed without test substance being used for comparison.
The hypolipidaemic activity of the above mentioned compound A was tested.

[4] = tested on: normolipaemic golden hamster; assay: Determination of the lithogenic index in the normolipaemic golden hamster; format: in vivo; conditions: 20 days
Protocol: IV. Determination of the lithogenic index in the normolipaemic golden hamster
The lithogenic index is a measure of susceptibility to gallstone formation and is defined as the […] in mol %. It was determined by the method of Carey and Small, described in J. Clin. Investig. 61, 998-1026 [1978]. The higher the lithogenic index, the higher the probability of gallstone formation. The determination of the lithogenic index was carried out as follows:
Male golden hamsters are fed ad lib with a cholesterol-free hamster diet for 20 days. The substance to be tested is admixed to the feed in concentrations of 0.01 to 0.1%. At the end of the experimental period, total cholesterol, the HDL fraction and also the VLDL+LDL fraction in the serum, and the bile acids, the cholesterol and the phospholipids in the bile are determined by standard methods.
The compound A described above was tested. The percentage decrease in the lithogenic index was determined relative to the control.

[5] = tested on: Normal human epidermal keratinocytes (NHEK); assay: Inhibition of cell proliferation of keratinocytes; format: cell-based; conditions: read-out: percentage decrease in cell numbers
Protocol: V. Inhibition of cell proliferation
Normal human epidermal keratinocytes (NHEK) are cultured under sterile conditions in keratinocyte growth medium (Gibco) in a humidified, 5% CO2 -containing atmosphere. Cells of the third passage are inoculated at a density of 12,000 cells/ml.
After 24 hours, the test substance is added to the medium and the number of cells is determined after a further 48 hours. The results were calculated in comparison to a control and are indicated as the percentage decrease in cell numbers.
The proliferation-inhibiting action of the above mentioned compound A was tested in comparison to simvastatin at concentrations of 10^-6 to 10^-10 mol/l.

[6] = Toxic effects in the mouse after oral administration; format: in vivo; conditions: oral 100 mg/kg, once daily for 4 days
From the text: The compounds A to I appeared to be non-toxic at the curative dose.

[7] = J. Biol. Chemistry 265, 18075-18078 [1990]; cited from earlier work
smooth muscle cell = conditions: Cardiovasc. Drugs Ther. 5, Suppl. 3, 354 [1991]; cited from earlier work
laying hens = conditions: FASEB Journal 4, A 533 [1990]; cited from earlier work
[8] = cited from earlier work
[9] = tested on: Aspergillus niger ATCC 16404; assay: Fungistatic activity, serial dilution test; format: cell-based; conditions: ATCC16404, 2 to 4 days at 26° C.
Protocol: (§1) VI. Determination of fungistatic activity The fungistatic activity was determined by means of the serial dilution test (microtitre system). Sabouraud broth was used as the nutrient medium. The inoculum was approximately 10^4 to 10^5 CFU/ml (CFU=colony-forming units); the incubation time was 2 to 4 days at 26° C. The minimum inhibitory concentration (MIC), i.e. the lowest concentration which no longer allowed visible growth, and the lowest concentration at which a decrease in growth of the test microorganism occurred in comparison with a control were determined. The above mentioned compound I was tested.

[10] = tested on: Candida albicans ATCC 10231; assay: Fungistatic activity, serial dilution test; format: cell-based; conditions: ATCC10231, 2 to 4 days at 26° C.
Protocol: as §1

[11] = tested on: Penicillium notatum CBS 19746; assay: Fungistatic activity, serial dilution test; format: cell-based; conditions: Penicillium chrysogenum, CBS19746, 2 to 4 days at 26° C.
Protocol: as §1

Rhodotorula rubra 49 = assay: Fungistatic activity, serial dilution test; format: cell-based; conditions: 2 to 4 days at 26° C.
Protocol: as §1

[12] = tested on: Sacc. carlsbergensis ATCC 9080; assay: Fungistatic activity, serial dilution test; format: cell-based; conditions: Saccharomyces pastorianus, ATCC9080, 2 to 4 days at 26° C.
Protocol: as §1

[13] = tested on: Trichophyton mentagrophytes ATCC 9129; assay: Fungistatic activity, serial dilution test; format: cell-based; conditions: ATCC9129, 2 to 4 days at 26° C.
Protocol: as §1

[14] = Gut 31, 348-350 [1990], Z. Gastroenterol. 29, 242-245 [1991]
[15] = read-out: Decrease in growth (lowest concentration)

## O=C(c1ccc(Cl)cc1)N1CCC(=Cc2ccc(C3=NCCO3)cc2)CC1 [A, 1-(4-chlorobenzoyl)-4-[4-(2-oxazolin-2-yl)benzylidene]piperidine]
[1]
  percent change in 14C-acetate incorporation into sterols at 0.1 µM: -81%
  percent change in 14C-acetate incorporation into sterols at 0.01 µM: -58%
[2]; 0.1 mg/kg oral
  2,3-Epoxysqualene concentration in plasma (rat): 0.71 µg/mL
[2]; 1.0 mg/kg oral
  2,3-Epoxysqualene concentration in plasma (rat): 3.75 µg/mL
[3]; 0.01% in feed
  HDL: -12.4%
  Total Cholesterol: -19.8%
  VLDL + LDL: -25.0%
[3]; 0.03% in feed
  HDL: -17.5%
  Total Cholesterol: -26.3%
  VLDL + LDL: -31.2%
[3]; 0.10% in feed
  HDL: -13.9%
  Total Cholesterol: -25.8%
  VLDL + LDL: -36.6%
[4]; 0.01% in feed
  Lithogenic Index (percentage decrease relative to control): -24%
[4]; 0.03% in feed, n.s. = not significant
  Lithogenic Index (percentage decrease relative to control): -10%
[4]; 0.1% in feed
  Lithogenic Index (percentage decrease relative to control): -28%
[5]; 10^-6 mol/l, 48 hours
  inhibition at 1 µM: 72%
[5]; 10^-7 mol/l, 48 hours
  inhibition at 0.1 µM: 73%
[5]; 10^-8 mol/l, 48 hours
  inhibition at 0.01 µM: 70%
[5]; 10^-9 mol/l, 48 hours
  inhibition at 0.001 µM: 48%
[5]; 10^-10 mol/l, 48 hours
  inhibition at 0.0001 µM: 16%
[6]
  toxic effects in the mouse: no toxic effects

## CCN(CC)CCOc1ccc(C(O)(Cc2ccc(Cl)cc2)c2ccc(C)cc2)cc1 (stereo not shown) [triparanol]
[7]
  toxic effects leading to withdrawal from the market: formation of cataracts, ichthyosis and alopecia

## CC[C@H](C)C(=O)O[C@H]1C[C@@H](C)C=C2C=C[C@H](C)[C@H](CC[C@@H]3C[C@@H](O)CC(=O)O3)[C@H]21 [lovastatin]
Smooth muscle cell
  smooth muscle cell proliferation: inhibition of smooth muscle cell proliferation
Laying hens
  cholesterol content of eggs: lowering of the cholesterol content of eggs
[8]; [14]
  cholesterol concentration in the bile / lithogenic index: can cause a reduction of the cholesterol concentration in the bile
  gallstone formation: do not lead to increased gallstone formation
[8]; in particular in combination with ursodeoxycholic acid, Gastroenterology 102, A 319 [1992]
  dissolution of gallstones: effectiveness

## O=C(c1ccc(Cl)cc1)N1CCC(Cc2ccc(C3=NCCO3)cc2)CC1 [I, 1-(4-chlorobenzoyl)-4-[4-(2-oxazolin-2-yl)benzyl]piperidine]
[1]
  percent change in 14C-acetate incorporation into sterols at 0.1 µM: -89%
  percent change in 14C-acetate incorporation into sterols at 0.01 µM: -75%
[2]; 0.1 mg/kg oral
  2,3-Epoxysqualene concentration in plasma (rat): 3.41 µg/mL
[2]; 1.0 mg/kg oral
  2,3-Epoxysqualene concentration in plasma (rat): 8.41 µg/mL
[9]
  MIC: > 1020 µg/mL
[9]; [15]
  minimal effective concentration: 128 µg/mL
[10]
  MIC: 128 µg/mL (≈ 334 µM)
[10]; [15]
  minimal effective concentration: 64 µg/mL
[11]
  MIC: 128 µg/mL (≈ 334 µM)
[11]; [15]
  minimal effective concentration: 64 µg/mL
Rhodotorula rubra 49
  MIC: 128 µg/mL (≈ 334 µM)
Rhodotorula rubra 49; [15]
  minimal effective concentration: 32 µg/mL
[12]
  MIC: 128 µg/mL (≈ 334 µM)
[12]; [15]
  minimal effective concentration: 64 µg/mL
[13]
  MIC: 512 µg/mL (≈ 1340 µM)
[6]
  toxic effects in the mouse: no toxic effects

## CC[C@H](C)C(=O)O[C@H]1C[C@H](O)C=C2C=C[C@H](C)[C@H](CC[C@@H](O)C[C@@H](O)CC(=O)O)[C@H]21 [pravastatin]
[8]; [14]
  cholesterol concentration in the bile / lithogenic index: can cause a reduction of the cholesterol concentration in the bile
[8]; in vivo
  gallstone formation: do not lead to increased gallstone formation

## CCC(C)(C)C(=O)O[C@H]1C[C@@H](C)C=C2C=C[C@H](C)[C@H](CC[C@@H]3C[C@@H](O)CC(=O)O3)[C@H]21 [Simvastatin, simvastatin, reference compound]
[5]; 48 h
  inhibition at 0.0001 µM: 7%
  inhibition at 0.001 µM: 21%
  inhibition at 0.01 µM: 20%
  inhibition at 0.1 µM: 51%
  inhibition at 1 µM: 68%

## O=C(c1ccc(C(F)(F)F)cc1)N1CCC(Cc2ccc(C3=NCCO3)cc2)CC1 [H, 4-[4-(2-oxazolin-2-yl)benzyl]-1-(4-trifluoromethylbenzoyl)piperidine]
[1]
  percent change in 14C-acetate incorporation into sterols at 0.1 µM: -86%
  percent change in 14C-acetate incorporation into sterols at 0.01 µM: -62%
[2]; 0.1 mg/kg oral
  2,3-Epoxysqualene concentration in plasma (rat): 1.70 µg/mL
[2]; 1.0 mg/kg oral
  2,3-Epoxysqualene concentration in plasma (rat): 9.15 µg/mL
[6]
  toxic effects in the mouse: no toxic effects

## O=C(c1ccc(Cl)cc1)N1CCC(=Cc2ccc(C3=NCCO3)cc2)C1 [K, 1-(4-chlorobenzoyl)-3-[4-(2-oxazolin-2-yl)benzylidene]pyrrolidine]
[1]
  percent change in 14C-acetate incorporation into sterols at 0.1 µM: -90%
  percent change in 14C-acetate incorporation into sterols at 0.01 µM: -56%
[2]; 0.1 mg/kg oral
  2,3-Epoxysqualene concentration in plasma (rat): 0.0 µg/mL
[2]; 1.0 mg/kg oral
  2,3-Epoxysqualene concentration in plasma (rat): 4.14 µg/mL

## O=C(C1CCCCC1)N1CCC(=Cc2ccc(C3=NCCO3)cc2)CC1 [G, 1-cyclohexanecarbonyl-4-[4-(2-oxazolin-2-yl)benzylidene]piperidine]
[1]
  percent change in 14C-acetate incorporation into sterols at 0.1 µM: -80%
  percent change in 14C-acetate incorporation into sterols at 0.01 µM: -45%
[2]; 0.1 mg/kg oral
  2,3-Epoxysqualene concentration in plasma (rat): 0.36 µg/mL
[2]; 1.0 mg/kg oral
  2,3-Epoxysqualene concentration in plasma (rat): 0.31 µg/mL
